Values quoted from earlier work as cited in patent US20040033532A1, “Use of three-dimensional crystal structure coordinates to design and synthesize domain-selective inhibitors for angiotensin-converting enzyme (ACE)” (priority 2002, published 2004).
Entries after “also recorded” stand apart in the source; their conditions may differ. Where two headings read alike, the source gives them in different places. Each block holds one compound with its values, some of them ahead of it.

What was measured:
[1] = system: ACE N domain and C domain active sites; settings: N domain vs C domain
ACE = ACE (Homo sapiens, UniProt P12821)
rabbit liver ACE = biological target: T1, rabbit liver ACE (Oryctolagus cuniculus, UniProt P12822)
T1 construct: rabbit liver ACE in vitro; from tissue; host or cells: rabbit liver
T1 sequence (P12822 34-1310): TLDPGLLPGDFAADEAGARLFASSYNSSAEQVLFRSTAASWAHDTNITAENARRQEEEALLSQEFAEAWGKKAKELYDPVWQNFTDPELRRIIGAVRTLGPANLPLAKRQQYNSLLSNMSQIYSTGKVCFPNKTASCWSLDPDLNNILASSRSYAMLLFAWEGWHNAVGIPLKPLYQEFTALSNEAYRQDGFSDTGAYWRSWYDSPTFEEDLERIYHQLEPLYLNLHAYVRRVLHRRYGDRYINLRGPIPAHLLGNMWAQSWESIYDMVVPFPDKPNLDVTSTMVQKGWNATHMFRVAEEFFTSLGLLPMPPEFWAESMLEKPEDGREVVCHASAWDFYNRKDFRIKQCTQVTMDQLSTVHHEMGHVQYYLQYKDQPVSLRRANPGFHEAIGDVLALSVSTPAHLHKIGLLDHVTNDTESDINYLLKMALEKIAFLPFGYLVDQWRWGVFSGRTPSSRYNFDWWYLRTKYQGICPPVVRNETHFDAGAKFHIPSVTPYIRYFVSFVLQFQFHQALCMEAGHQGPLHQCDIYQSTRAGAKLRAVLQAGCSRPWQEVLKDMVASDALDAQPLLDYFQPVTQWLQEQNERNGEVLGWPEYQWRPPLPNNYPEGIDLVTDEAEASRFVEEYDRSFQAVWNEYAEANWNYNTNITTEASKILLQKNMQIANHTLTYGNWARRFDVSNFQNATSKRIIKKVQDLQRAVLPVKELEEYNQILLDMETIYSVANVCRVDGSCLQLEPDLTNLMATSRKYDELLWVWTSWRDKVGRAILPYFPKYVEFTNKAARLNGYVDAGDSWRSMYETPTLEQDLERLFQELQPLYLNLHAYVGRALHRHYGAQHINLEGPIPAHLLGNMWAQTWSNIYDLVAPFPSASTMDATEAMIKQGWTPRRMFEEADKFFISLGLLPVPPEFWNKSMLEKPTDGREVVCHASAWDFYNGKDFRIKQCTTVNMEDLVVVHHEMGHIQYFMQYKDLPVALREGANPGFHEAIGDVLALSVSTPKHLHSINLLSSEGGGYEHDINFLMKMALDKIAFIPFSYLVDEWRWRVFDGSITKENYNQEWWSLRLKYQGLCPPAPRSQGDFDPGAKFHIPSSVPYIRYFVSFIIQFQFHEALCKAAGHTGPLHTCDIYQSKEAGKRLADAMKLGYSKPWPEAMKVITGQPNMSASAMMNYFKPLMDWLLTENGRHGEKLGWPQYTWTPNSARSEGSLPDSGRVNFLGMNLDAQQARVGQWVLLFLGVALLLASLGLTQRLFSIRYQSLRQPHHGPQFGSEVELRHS

Sequence of ACE (P12821 30-1306, species assumed): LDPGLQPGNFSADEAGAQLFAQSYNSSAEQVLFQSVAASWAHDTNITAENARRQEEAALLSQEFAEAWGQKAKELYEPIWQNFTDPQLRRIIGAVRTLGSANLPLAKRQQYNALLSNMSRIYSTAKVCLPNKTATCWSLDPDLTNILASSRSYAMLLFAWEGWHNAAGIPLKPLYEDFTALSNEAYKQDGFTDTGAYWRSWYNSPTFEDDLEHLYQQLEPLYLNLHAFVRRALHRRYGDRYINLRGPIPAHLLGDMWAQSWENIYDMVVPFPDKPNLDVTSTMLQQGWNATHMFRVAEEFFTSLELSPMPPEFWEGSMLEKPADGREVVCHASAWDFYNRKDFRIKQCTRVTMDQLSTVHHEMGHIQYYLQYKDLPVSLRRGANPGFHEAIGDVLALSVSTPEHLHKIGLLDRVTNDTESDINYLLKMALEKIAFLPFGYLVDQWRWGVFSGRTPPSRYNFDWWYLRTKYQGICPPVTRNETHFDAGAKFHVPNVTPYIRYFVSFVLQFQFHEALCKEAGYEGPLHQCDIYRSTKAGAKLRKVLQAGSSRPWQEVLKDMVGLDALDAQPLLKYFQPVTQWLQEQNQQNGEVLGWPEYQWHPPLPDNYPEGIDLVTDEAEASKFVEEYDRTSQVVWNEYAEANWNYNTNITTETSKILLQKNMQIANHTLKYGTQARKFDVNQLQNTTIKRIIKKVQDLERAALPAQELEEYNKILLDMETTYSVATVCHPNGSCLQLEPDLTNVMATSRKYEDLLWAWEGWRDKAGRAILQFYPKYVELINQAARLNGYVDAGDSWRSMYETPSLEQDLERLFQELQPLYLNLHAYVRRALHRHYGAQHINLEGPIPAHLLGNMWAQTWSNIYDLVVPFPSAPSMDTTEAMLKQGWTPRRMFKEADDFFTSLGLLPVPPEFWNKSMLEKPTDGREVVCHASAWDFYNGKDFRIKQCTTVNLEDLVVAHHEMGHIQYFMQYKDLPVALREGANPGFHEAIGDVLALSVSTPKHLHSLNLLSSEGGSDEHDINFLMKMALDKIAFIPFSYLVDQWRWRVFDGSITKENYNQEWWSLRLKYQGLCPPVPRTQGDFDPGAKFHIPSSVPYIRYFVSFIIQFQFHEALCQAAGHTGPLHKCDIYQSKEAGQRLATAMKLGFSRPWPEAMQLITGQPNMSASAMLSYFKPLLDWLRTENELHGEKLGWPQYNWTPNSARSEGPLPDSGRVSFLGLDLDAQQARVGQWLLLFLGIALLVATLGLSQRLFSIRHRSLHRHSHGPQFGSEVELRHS

Compound: O=C(N[C@@H](Cc1ccccc1)C(=O)CCC(=O)N1CCC[C@H]1C(=O)O)c1ccccc1 [keto-ACE, Bz-Phe Ψ (CO—CH2)Gly-Pro]
domain selectivity of ACE inhibition (in words) [1]: more effective inhibitors of the C domain; also recorded: C-domain specific inhibitor

IC50 (ACE; Hip-Gly-Gly as substrate): 7 nM
Ki (ACE; competitive inhibitor of ACE): 2.7 ± 0.2 nM
Compound: CN(CC(=O)NO)C(=O)[C@@H]1CCCC[C@@H]1C(=O)O [Compound 2]

Compound: Angiotensin (1-7) [Asp^1-Pro^7] (DRVYIHP; Angiotensin 1-7; UniProt P01019 25-31, looked up, fragment) [peptide Asp1-Pro7 of angiotensin]
domain selectivity of ACE inhibition (in words) [1]: more effective inhibitors of the C domain

Compound: Ac-Asp-Phe-Ψ(PO2—CH2)-Ala-Ala-NH2
domain selectivity of ACE inhibition (in words) [1]: far better inhibitor of the N domain
domain selectivity of ACE inhibition (in words) ([1]; listed as Ac-Asp-Phe-Ψ(PO2—CH2)-Ala-Ala): far better inhibitor of the N-domain

IC50 (rabbit liver ACE; Hip-His-Leu hydrolysis, rabbit liver ACE, in vitro): 230000 nM
enzyme activity remaining (rabbit liver ACE; after 10 minutes of incubation with 0.4 mM of inhibitor): ~50%
recovery of enzyme activity after dialysis (rabbit liver ACE; after dialysis): could not be recovered
Compound: C[C@H](NC(=O)/C=C/c1ccccc1)C(=O)N1CCC[C@H]1C(=O)O [Compound 1]
